Experiments:
[1] = system: Plasmodium falciparum (ATCC 30932, FCR-3 strain); experiment: Evaluation of antimalarial activity (infected human erythrocytes, Giemsa staining); assay type: cell-based; conditions: 37° C., 72 hours, values in FIG. 8 only, stated in words
Protocol: Human erythrocyte infected with malaria parasite (Plasmodium falciparum (ATCC 30932, FCR-3 strain)) is prepared on a 24-well culture plate and 5 μl each of DMSO solutions of antimalarial drug candidate compounds prepared at various concentrations is added. Thereafter, the erythrocyte is cultured at 37° C. for 72 hours. A part of the cultured erythrocyte is subjected to Giemsa staining. Then, the number of cells infected with malaria is counted under microscope. EC50 values are calculated based on the measurement values.

[2] = system: Mouse mammary tumor FM3A cells; experiment: Evaluation of cytotoxicity; assay type: cell-based; conditions: 37° C., 48 hours, values in FIG. 8 only, stated in words
Protocol: (2) Evaluation Method of Cytotoxicity (See Hye-Sook Kim; Yasuharu Shibata; Yusuke Wataya; Kaoru Tsuchida; Araki Masuyama; Masatomo Nojima. J. Med. Chem. 1999, 42, 2604-2609)
The concentration of […] (Mouse mammary tumor FM3A cells) is adjusted to 5×10^4 cells/ml, and 5 μl of DMSO solutions of antimalarial drug candidate compounds prepared at various concentrations is added. The cells area cultured at 37° C. for 48 hours and then, the number of surviving cells is counted by the use of microcell counter CC-130 (To a Medical Electric Co.). The measurement results are compared with the results obtained from the control experiment so as to calculate EC50 value.

CN(CCNC(=O)C=Cc1c[nH]cn1)CCNc1ccnc2cc(Cl)ccc12 [uro-2Q, N-(2-{[2-(7-Chloro-quinolin-4-ylamino)ethyl]methylamino}ethyl)-3-(1H-imidazol-4-yl)acrylamide]
antimalarial activity (EC50) [1]: higher antimalarial activity
cytotoxicity (EC50) [2]: lower toxicity as compared with existing drugs

Source: patent publication US7973027B2, “Compound with antimalarial activity and antimalarial drug containing the same as active ingredient” (Nagoya City University, priority 2006, dated 2011)
